Square brackets hold non-standard residues; d marks the D form. Peptide text beside a SMILES is read from it. Nle = CCCC[C@H](N)C(=O)O
How the values were obtained:
p73 [1] = assay: Western blot of p73 in MCF-7-p73 cells after proteosome inhibitor; format: cell-based, human; settings: proteosome inhibitor for 3 hours
Method: FIG. 4. c-Jun is required for UV-mediated p73 stabilization. (a) MCF-7 cells stably transfected with p73 and parental MCF-7 cells were treated with the proteosome inhibitor for 3 hours or UV irradiated (50 J/m^2) and cell extracts were analyzed 2 hours post-irradiation by Western blotting as described in FIG. 1. (b) c-Jun^−/− and c-Jun^−/−+c-Jun mouse embryonic fibroblasts were transfected with the indicated plasmids and were untreated or UVC irradiated (40 J/m^2) or gamma-irradiation (10Gy) 24 hours post-transfection. 24 hours after irradiation, cell extracts were prepared and analyzed for p73 protein levels by Western blotting.
To analyze if c-Jun provides the stabilization signal, the inventors generated MCF-7 breast carcinoma cells stably expressing p73 (MCF-7-p73 cells), which would thus provide a detectable level of basal p73 expression. The overexpressed p73 was expressed in these cells (FIG. 4a). […] However, when these cells were treated with UV irradiation, which is a potent inducer of c-Jun but not p73 (Jost C A. et al, p73 is a simian [correction of human] p53-related protein that can induce apoptosis, Nature, 1997, Sep. 11; 389(6647):191-4.), p73 expression was detected as early as 2 hours post-irradiation, in contrast to the parental MCF-7 cells (FIG. 4a).

p73 [2] = assay: Western blot of endogenous p73 levels in fibroblasts after cisplatin; format: cell-based, mouse; set-up: levels of p73 protein: dose or concentration left out as unconfirmed
Method: FIG. 1. […] These extracts were analysed by Western blotting for the expression of p73 and phosphorylated c-Jun using specific antibodies.
FIG. 2. c-Jun is necessary for cisplatin-induced p73 expression and apoptosis. […] (b) Extracts from cells described in (a) were analyzed for endogenous p73 levels by Western blotting.
Although p73 is a structural and functional homologue of the p53 tumour suppressor protein, p73 is only activated by a subset of agents that activate p53. […] The inventors have thus investigated the molecular mechanism(s) by which p73 activity is regulated. […] The increase in p73 levels in cisplatin-treated cells correlates with the phosphorylation of the proto-oncogene product, c-Jun (FIG. 1). Phosphorylated c-Jun was not detected upon gamma-irradiation of cells (FIG. 1).

p73 [3] = assay: Egfp reporter screen for p73 activation in H1299-p53RE cells; format: cell-based, human; settings: p53-null H1299 reporter cells
From the text: The screen utilises a p53 null cell line, H1299, which is a human lung cancer cell line. In these cells, p53 is not active as the gene is deleted. The inventors have transfected a plasmid containing the p53/p73 binding DNA sequences (or responsive element) driving the enhanced green fluorescent protein gene (Egfp) as a reporter (FIG. 8). Generally, the reporter would be turned “on” when p53 or its homologues bind to the responsive element. […] However, when the cells are exposed to compounds that activate p73, which is normally present in a dormant state in these cells, then these cells would fluoresce and would be visible as green cells under the fluorescence microscope.
It is important to note that all the cells in the population expressed Egfp, implying that the cell-system generated is homogenous and results in a 100% response.

Compound | expression of p73 protein (p73 [1]) | p73 protein induction (p73 [2]; absence of c-Abl, cisplatin) | p73 protein induction (p73 [2]; c-Jun-/- cells, cisplatin 25 μM, 24 hours) | p73 protein induction (p73 [2]; jun-/-+c-Jun cells, cisplatin 25 μM, 24 hours) | levels of p73 protein (p73 [2]; wild-type mouse embryonic fibroblasts, cisplatin (FIG. 1), 24 hours post-treatment) | response of the cell population (cells expressing Egfp) (p73 [3]; cisplatin treated) [%] | expression of Egfp (endogenous p73 activity) (p73 [3]; flow cytometer)
CCCC[C@@H](C=O)NC(=O)[C@H](CC(C)C)NC(=O)[C@H](CC(C)C)NC(C)=O [ALLN] (Ac-Leu-Leu-[Nle]-aldehyde) | did not result in the increased expression of p73 protein | – | – | – | – | – | –
N.N.[Cl][Pt][Cl] [cisplatin] | – | severely compromised | abrogated the induction of p73 | induced significantly | increase in the levels of p73 protein | 100 | expression of Egfp in all the cells
